The nature of data set [1]: Oral pharmacokinetics in mice. The format is in vivo, female BALB/c mice. To be noted: 50 mg/kg. The procedure: 4,9-Dihydroxy-14,15-dimethoxy-12a-(3′,4′-dimethoxyphenyl)-3,10-dimethyl-2,11-dioxa-(1H,12H)-6b,6c,12a,16b-tetrahydronaphtho[1,2-g]chrysene (2) from Example 6.1 was prepared as homogenous suspensions in 1% CMC (m:v, water). The Cpd. 2 formulation was delivered orally by gavage to female BALB/c mice at a dosage of 50 mg/kg. Three animals were allocated to each time point (15 min, 30 min, 1 hr, 4 hr and 24 hr). At each respective time point, animals were euthanased by cervical dislocation and blood collected. Free Cpd.

A further data set concerns splenocytes. The experiment in a line: Murine splenocyte proliferation with mitogens (MTT), 3 day incubation with compound. Type of data set: cell-based, Male Skh-1 (hairless) mice. On the procedure: Male Skh-1 (hairless) mice, six weeks old were killed by cervical dislocation. Single cell suspensions were made from their spleens and erythrocytes were lysed in buffer (0.14M NH4Cl, 17 mM Tris, pH 7.2). The remaining splenocytes were cultured in RPMI-1640 (Gibco) supplemented with 10% (v:v) FBS, 200 mM L-glutamine, penicillin/streptomycin and […] 2-mercaptoethanol. […] Samples were analysed after a 3 day incubation at 37° C. in 5% CO2 in air. To assess cell numbers, methylthiazoletetrazolium (MTT) was added to each well, incubated for a further 4 hrs and then colour developed with 0.04N HCl in isopropanol (Mosmann 1983). Plates were read at 570 nm and 630 nm. The compounds were examined several times using different mice. For each assay, the effect of test compound was compared with that of vehicle control, and the results compared using a student's t test (Prism). Statistically significant difference was determined to have occurred when p<0.05.

A further data set relates to DU145 (Prostate). The experiment in a line: In vitro cytotoxicity, MTT proliferation assay, DU145. Type of data set: cell-based, human. The following applies: Homo sapiens, DU-145. The procedure:
(§1) The human pancreatic cancer cell line, HPAC (CRL-2119) was routinely cultured in 1:1 mixture DMEM (Sigma) plus Ham's F12 (Sigma) medium containing HEPES (15 mM), insulin (0.002 mg/ml), transferrin (0.005 mg/ml), hydrocortisone, (40 ng/ml), epidermal growth factor (10 ng/ml). The ovarian cancer cell line CP70 was obtained as a gift from Dr. Gil Mor (Yale University) and cultured in a 1:1 mixture DMEM plus Ham's F12 medium, and SKOV-3 was purchased from ATCC and cultured in McCoy's 5a medium. The breast cancer cell line MDA-MB-468 cultured in Leibovitz's L-15 medium.
(§2) All cultures were supplemented with 10% FCS(CSL, Australia), penicillin (100 U/ml), streptomycin ([…]), L-glutamine (2 mM) and sodium bicarbonate (1.2 g/L), and cultured at 37° C. in a humidified atmosphere of 5% CO2. All remaining cell lines were purchased from ATCC (Maryland, USA) except where noted.
(§3) IC50 values were determined for each cell line. Cells were seeded in 96-well plates at an appropriate cell density as determined from growth kinetics analysis. NFFs were cultured for 5 days and RK-13s for 24 hrs in the absence and presence of the test compounds. Cell proliferation was assessed after the addition of 20 μl of 3-4,5 dimethylthiazol-2,5-diphenyl tetrazolium bromide (MTT, 2.5 mg/ml in PBS, Sigma) for 3-4 hrs at 37° C. according to manufacturer's instructions. IC50 values were calculated from semi-log plots of % of control proliferation on the y-axis against log dose on the x-axis.
(Formazan colour is commonly taken as a measure of viable cells.)

The subject of another data set is PC3 (Prostate). The experiment in a line: In vitro cytotoxicity, MTT proliferation assay, PC3. The following applies: Homo sapiens. Type of data set: cell-based, human. On the procedure:
as §1, §2, §3

For a further data set, the system named is TXB2 synthesis. The experiment in a line: TXB2 synthesis in human monocytes incubated with LPS. To be noted: LPS 200 ng/mL, 18 hrs, dose responsive. The format is cell-based. On the procedure: (§4) Human peripheral blood monocytes (from three separate individuals) were isolated from buffy coats by lymphoprep gradient separation of mononuclear cells followed by counter-current centrifugal elutriation (Demasi et al. 2000). The test compounds were dissolved in DMSO and added to fresh monocytes After 30 min, LPS was added to achieve a final concentration of 200 ng/mL. After incubation for 18 hrs at 37° C. in 5% CO2, supernatants were removed and PGE2, TXB2 (the stable hydrolysis product of TXA2) and TNFα production were measured by radioimmunoassay (RIA).

The test system of a further data set is SKOV-3 (Ovarian). The experiment in a line: In vitro cytotoxicity, MTT proliferation assay, SKOV-3. Type of data set: cell-based, human. The following applies: Homo sapiens, SK-OV-3; Ovarian SKOV-3. The procedure:
as §1, §2, §3

Another data set relates to NCI-H23 (Lung). The experiment in a line: In vitro cytotoxicity, MTT proliferation assay, NCI-H23. Type of data set: cell-based. To be noted: Homo sapiens. The procedure:
as §1, §2
(§5) IC50 values were determined for each cell line. Cells were seeded in 96-well plates at an appropriate cell density as determined from growth kinetics analysis. […] Cell proliferation was assessed after the addition of 20 μl of 3-4,5 dimethylthiazol-2,5-diphenyl tetrazolium bromide (MTT, 2.5 mg/ml in PBS, Sigma) for 3-4 hrs at 37° C. according to manufacturer's instructions. IC50 values were calculated from semi-log plots of % of control proliferation on the y-axis against log dose on the x-axis.

A short description of data set [2]: Toxicity study, i/p administration in mice. The following applies: 50 mg/kg i/p daily. The format is in vivo. The procedure: In a small study, BALB/cnu/nu mice were administered with either Compound 2 (n=2) as a solution in 6% Tween 20:PBS at 50 mg/kg or an equivalent volume of vehicle (n=2), by i/p injection. Mice were weighed and observed for signs of toxicity daily using clinical monitoring sheets. On day 9, mice were killed by cervical dislocation, and the kidney, spleen and liver of each mouse were collected for histological assessment of toxicity.

The test system of a further data set is CCRF-CEM (Leukemic). The experiment in a line: In vitro cytotoxicity, MTT proliferation assay, CCRF-CEM. Type of data set: cell-based. The following applies: Homo sapiens. On the procedure: as §1, §2, §5
Data set [3] concerns RK-13 (rabbit kidney) cells. The experiment in a line: Normal cell toxicity, MTT proliferation assay, rabbit kidney cells. Type of data set: cell-based. The following applies: Oryctolagus cuniculus, 24 hrs. The procedure:
Neonatal foreskin fibroblasts (NFF) were a gift from Dr. Peter Parsons (Queensland Institute of Medical Research). RK-13 (rabbit kidney) cells were obtained from Miller Whalley (Macquarie University). Both cell types were cultured in RPMI supplemented with 10% FCS (CSL, Australia), penicillin (100 U/ml), streptomycin ([…]), L-glutamine (2 mM) and sodium bicarbonate (1.2 g/L), and cultured at 37° C. in a humidified atmosphere of 5% CO2.
as §3

Another data set relates to PGE2 synthesis. The experiment in a line: PGE2 synthesis in human monocytes incubated with LPS. Type of data set: cell-based. To be noted: LPS 200 ng/mL, 18 hrs, dose responsive. The procedure:
as §4

A further data set relates to thoracic aorta. The experiment in a line: Aortic ring contractility induced by noradrenaline. Details: species or system Male Sprague-Dawley rats. The following applies: in presence of Cpd. 2 1 μg/ml; 1.94±0.35 vs. 2.09±0.23, p>0.05, no effect; n=6 rings. The procedure: Male Sprague-Dawley rats (250±50 g) were euthanased with 80% CO2 and 20% O2. The thoracic aorta was excised and quickly mounted in organ-baths as described (Chin-Dusting et al, 2001). Full concentration-contractile curves were obtained to noradrenaline ([…]) in the absence and presence of Cpd. 2 (1 μg/ml). Experiments were repeated in n=6 different rings from 6 different animals.

The term IC50 denotes the midpoint of a concentration-inhibition curve. The low end stands for greater potency, the high end for weaker potency. Turning to `COc1ccc(C23COc4c(ccc(O)c4C)C2C2c4ccc(O)c(C)c4OCC2c2cc(OC)c(OC)cc23)cc1OC` (stereo not drawn) [Cpd. 2, 4,9-Dihydroxy-14,15-dimethoxy-12a-(3′,4′-dimethoxyphenyl)-3,10-dimethyl-2,11-dioxa-(1H,12H)-6b,6c,12a,16b-tetrahydronaphtho[1,2-g]chrysene], in [1] (female, BALB/c, mouse, blood, oral gavage, Time 0.25 (15 min), read-out: Free concentration in blood), the concentration at 15 min came to 1.33 µM. Moreover, the concentration at 30 min in data set [1] (female, BALB/c, mouse, blood, oral gavage, Time 0.5 (30 min), read-out: Free concentration in blood) turned out to be 4.93 µM. Also, in data set [1] (female, BALB/c, mouse, blood, oral gavage, Time 1 (1 hr), read-out: Free concentration in blood), the concentration at 1 h came to 6.76 µM. In [1] (female, BALB/c, mouse, blood, oral gavage, Time 4 (4 hr), read-out: Free concentration in blood), the concentration at 4 h came out at 6.31 µM. The concentration at 24 h in data set [1] (female, BALB/c, mouse, blood, oral gavage, Time 24 (24 hr), read-out: Free concentration in blood) was found to be 1.15 µM. For the same compound, the “half-life compared to dehydroequol” value in [1] (oral) is recorded as “superior half-life at times up to 4 hours compared to dehydroequol”. In data set [1] (oral), the “rate of conjugation compared to dehydroequol” value was “slow rate of conjugation compared to dehydroequol”. The “effect on splenocyte proliferation” value in the data set with splenocytes (10 μM, four different assays) was “no consistent trend”. Further, the “proliferation compared with vehicle control” value in the data set on splenocytes (higher concentrations (than 10 μM), regardless of mitogenic stimulation) is “reduced proliferation”. In addition, the half-maximal inhibitory concentration (IC50) with DU145 (Prostate) came out at 8.84 ± 0.47 µM; in the data set with PC3 (Prostate) it was 7.36 ± 1.35 µM; in the data set with SKOV-3 (Ovarian) it was 16.7 ± 10 µM; in the data set on NCI-H23 (Lung), 16.4 µM; with CCRF-CEM (Leukemic), 10.3 ± 1.33 µM; in data set [3] it was 36 ± 2.7 µM. Also, the “effect on TXB2 synthesis” value in the data set with TXB2 synthesis is “inhibited”. In data set [2] (9 days), the “body weight gain vs vehicle” value is “no difference”. In addition, in [2] (9 days), the clinical signs entry is recorded as “no abnormal clinical signs”. For the same compound, the “histological assessment of toxicity (kidney, spleen, liver)” value in [2] (day 9) is reported as “no histological evidence of toxicity”. Also, in the data set on PGE2 synthesis, the “effect on PGE2 synthesis” value is given as “induced”. In addition, the “maximal contractile response to noradrenaline” value with thoracic aorta came out at 2.09±0.23.

For the origin of these results see patent US7700644B2, “Isoflavonoid dimers” (Novogen Research Pty Ltd, priority 2005, dated 2010).
